The record followed here is US20240109885A1, “2,3-DIHYDRO-1H-PYRROLO[3,2-B]PYRIDINE DERIVATIVE, PREPARATION METHOD THEREFOR, AND APPLICATION THEREOF” (Abbisko Therapeutics Co., Ltd, priority 2020, published 2024).

Common to all, as to assay type: cell-based
Experiment [1] has as its target Ba/F3 EGFR-V769_D770insASV (Homo sapiens, UniProt P00533, DUP767-769, cells depend on it). As to the kind of experiment: Cell proliferation assay (CellTiter-Glo), Ba/F3 EGFR-V769_D770insASV cells. The settings on record: 72 hrs, CTG assay, * = average of multiple measurements, read-out: Ba/F3 EGFR-V769_D770insASV (nM), IC50 of cell proliferation. How it is done: (§1) I. Cell proliferation assay (i) Reagents and consumables • Fetal bovine serum (FBS) (GBICO, Cat #10099-141); • CellTiter-Glo® Luminescent Cell Viability Assay Kit (Promega, Cat #G7572); • Black transparent flat-bottomed 96-well plate (Corning®, Cat #3603).
(§2) • SpectraMax Multi-Label Microplate Detector MD, 2104-0010A; • CO2 incubator, Thermo Scientific 3100 Series; • Biosafety cabinet, Thermo Scientific, 1300 Series type A2; • Inverted microscope, Olympus, CKX41SF; • Siemens refrigerator KK25E76TI. (iii) Cell lines and culture conditions
(§3) (iv) Experimental procedures 1. Cell culture and seeding: • (1) Cells in the logarithmic growth phase were harvested, and counted using a platelet counter. Cell viability was detected by the trypan blue exclusion assay to ensure that the cell viability was above 90%. • (2) The cell concentration was adjusted to achieve the final density; and 90 μL of the cell suspension was added to the 96-well plate. • (3) The cells were incubated in the 96-well plate overnight at 37° C. in the presence of 5% CO2 with 95% humidity. 2. TO benchmark data: • (1) 10 μL of PBS was added to each well of the TO flat plate containing the cells. • (2) The CTG reagent was thawed, and the cell plate was equilibrated to room temperature for 30 min. • (3) An equal volume of CTG solution was added to each well. • (4) The cells were shaken for 5 min on an orbital shaker for lysis. • (5) The cell plate was left at room temperature for 20 min to stabilize luminescent signals. • (6) The values of TO luminescent signals were read. 3. Compound dilution and addition • (1) According to the compound information table, a corresponding volume of DMSO was added to the corresponding compound powder to prepare a 10 mM stock solution. • (2) Compound solutions diluted at 1000 fold and 3.16 fold were prepared. • (3) The compound solution diluted at 1000 fold was diluted at 100 fold with PBS, to prepare the compound solutions at 10 fold in 9 concentrations, with the maximum concentration of […]; and the compound solution was diluted at 3.16 fold. 10 μL of medicament solution was added to each well of the seeded 96-well plate. Three replicate wells were provided for each concentration of the compound, and the final concentration of DMSO was 0.1%. • (4) Cells were placed in the 96-well plate containing the medicament and subsequently cultured for 72 hrs at 37° C. in the presence of 5% CO2 with 95% humidity, and then, CTG assay was conducted. 4. Reading of luminescent signals • (1) The CTG reagent was thawed, and the cell plate was equilibrated to room temperature for 30 min. • (2) An equal volume of CTG solution was added to each well. • (3) The cells were shaken for 5 min on an orbital shaker for lysis.
(§4) (4) The cell plate was left at room temperature for 20 min to stabilize the luminescent signals. • (5) Luminescent values were read. Data processing
(§5) The data were analyzed using software GraphPad Prism 7.0, and fitted by the nonlinear S-curve regression to obtain a dose-effect curve, based on which the IC50 value (unit: nM) was calculated, with the specific test results shown in Table 1.
(§6) Cell viability (%)=(Lum test medicament-Lum culture medium control)/(Lum cell control-Lum culture medium control)×100%.
In general terms: ATP-based viability assays read luminescence as a measure of living cells.

For experiment [2], the target named is Ba/F3 EGFR-D770-N771ins_SVD (Homo sapiens, UniProt P00533, DUP768-770, cells depend on it). Kind of experiment: Cell proliferation assay (CellTiter-Glo), Ba/F3 EGFR-D770-N771ins_SVD cells. Particulars: 72 hrs, CTG assay, * = average of multiple measurements, read-out: Ba/F3 EGFR-D770-N771ins_SVD (nM), IC50 of cell proliferation. How it is done: as §1, §2, §3, §4, §5, §6

In experiment [3] the test system is A431 (EGFR-WT). As to the kind of experiment: Cell proliferation assay (CellTiter-Glo), A431 cells. Particulars: Homo sapiens, A-431, 72 hrs, CTG assay, * = average of multiple measurements. The method, then: as §1, §2, §3, §4, §5, §6

Sequence of Ba/F3 EGFR-D770-N771ins_SVD (P00533 with tags, fused parts or gaps DUP768-770): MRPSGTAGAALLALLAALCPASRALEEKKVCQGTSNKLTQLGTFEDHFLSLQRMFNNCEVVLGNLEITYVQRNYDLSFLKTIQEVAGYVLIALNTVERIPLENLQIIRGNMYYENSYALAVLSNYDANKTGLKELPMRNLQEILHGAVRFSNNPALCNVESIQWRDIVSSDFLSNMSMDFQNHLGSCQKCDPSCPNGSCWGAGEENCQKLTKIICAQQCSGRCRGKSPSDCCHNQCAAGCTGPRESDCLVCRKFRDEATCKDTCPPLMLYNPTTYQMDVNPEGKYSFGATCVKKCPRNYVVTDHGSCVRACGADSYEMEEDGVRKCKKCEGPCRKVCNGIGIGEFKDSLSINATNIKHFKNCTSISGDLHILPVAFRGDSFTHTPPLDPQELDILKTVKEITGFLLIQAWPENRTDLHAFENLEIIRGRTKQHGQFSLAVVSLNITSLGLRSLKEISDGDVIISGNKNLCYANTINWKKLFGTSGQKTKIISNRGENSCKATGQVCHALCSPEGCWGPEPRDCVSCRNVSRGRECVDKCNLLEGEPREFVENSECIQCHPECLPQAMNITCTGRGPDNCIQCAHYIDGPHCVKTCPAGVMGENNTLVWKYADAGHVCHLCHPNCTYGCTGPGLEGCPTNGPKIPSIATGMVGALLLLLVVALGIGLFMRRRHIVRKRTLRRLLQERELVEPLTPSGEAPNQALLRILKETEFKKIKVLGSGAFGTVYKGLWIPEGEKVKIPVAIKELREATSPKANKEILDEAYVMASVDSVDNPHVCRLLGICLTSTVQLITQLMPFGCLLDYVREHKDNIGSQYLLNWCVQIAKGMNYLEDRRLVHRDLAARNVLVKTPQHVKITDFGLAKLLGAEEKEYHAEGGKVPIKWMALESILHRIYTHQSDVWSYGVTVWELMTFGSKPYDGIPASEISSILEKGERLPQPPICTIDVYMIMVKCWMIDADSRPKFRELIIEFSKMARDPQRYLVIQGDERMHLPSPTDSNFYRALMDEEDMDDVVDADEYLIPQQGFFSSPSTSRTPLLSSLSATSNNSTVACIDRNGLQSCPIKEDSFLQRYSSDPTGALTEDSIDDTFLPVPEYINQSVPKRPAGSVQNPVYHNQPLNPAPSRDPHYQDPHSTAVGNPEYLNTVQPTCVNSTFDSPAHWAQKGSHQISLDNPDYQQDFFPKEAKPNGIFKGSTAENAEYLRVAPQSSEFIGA
Sequence of Ba/F3 EGFR-V769_D770insASV (P00533 with tags, fused parts or gaps DUP767-769): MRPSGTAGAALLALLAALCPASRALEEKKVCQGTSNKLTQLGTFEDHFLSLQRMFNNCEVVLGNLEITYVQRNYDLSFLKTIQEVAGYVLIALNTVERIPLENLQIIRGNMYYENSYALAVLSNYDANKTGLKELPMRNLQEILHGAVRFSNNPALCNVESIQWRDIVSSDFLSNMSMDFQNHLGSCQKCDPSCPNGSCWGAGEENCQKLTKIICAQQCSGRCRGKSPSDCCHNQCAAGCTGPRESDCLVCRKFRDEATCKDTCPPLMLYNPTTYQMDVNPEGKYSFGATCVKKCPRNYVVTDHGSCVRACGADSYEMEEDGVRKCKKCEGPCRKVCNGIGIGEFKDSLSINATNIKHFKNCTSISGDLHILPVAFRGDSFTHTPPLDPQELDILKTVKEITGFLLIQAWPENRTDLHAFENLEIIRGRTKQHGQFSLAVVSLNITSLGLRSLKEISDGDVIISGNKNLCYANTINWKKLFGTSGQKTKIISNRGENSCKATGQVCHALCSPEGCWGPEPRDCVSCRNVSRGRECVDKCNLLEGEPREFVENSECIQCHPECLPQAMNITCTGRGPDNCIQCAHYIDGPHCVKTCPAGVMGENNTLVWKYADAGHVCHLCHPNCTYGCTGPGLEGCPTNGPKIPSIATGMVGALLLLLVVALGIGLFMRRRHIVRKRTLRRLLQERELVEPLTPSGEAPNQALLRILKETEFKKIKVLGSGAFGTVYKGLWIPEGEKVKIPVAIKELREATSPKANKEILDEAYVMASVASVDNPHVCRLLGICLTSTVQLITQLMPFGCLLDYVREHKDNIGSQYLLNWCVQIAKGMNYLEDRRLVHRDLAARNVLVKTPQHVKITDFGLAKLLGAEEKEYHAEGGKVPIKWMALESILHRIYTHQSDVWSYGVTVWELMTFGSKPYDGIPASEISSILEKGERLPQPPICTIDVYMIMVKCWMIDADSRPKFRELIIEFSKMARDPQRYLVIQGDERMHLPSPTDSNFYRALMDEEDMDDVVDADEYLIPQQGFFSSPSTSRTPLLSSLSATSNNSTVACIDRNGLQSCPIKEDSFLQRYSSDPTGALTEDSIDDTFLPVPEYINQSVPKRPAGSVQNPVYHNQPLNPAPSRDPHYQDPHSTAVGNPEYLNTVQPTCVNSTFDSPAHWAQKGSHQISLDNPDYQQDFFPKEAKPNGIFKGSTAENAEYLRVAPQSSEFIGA

As a reminder, the IC50 is the point on the concentration scale where inhibition reaches its midpoint. A low value points to inhibition by little substance. `C=CC(=O)Nc1cc(Nc2nccc(N3CC(C)(C)c4nc(C5CC5)ccc43)n2)c(OC)cc1N(C)CCN(C)C` [Example 17, N-(5-((4-(5-cyclopropyl-3,3-dimethyl-2,3-dihydro-1H-pyrrolo[3,2-b]pyridin-1-yl)pyrimidin-2-yl)amino)-2-((2-(dimethylamino)ethyl) (methyl)amino)-4-methoxyphenyl) acrylamide]: the GI50 in experiment [1] worked out at 54.6 nM; in experiment [2] it was 33.9 nM. This compound also gave an IC50 in experiment [3] of 125 nM.
In the same order, the values of `C=CC(=O)Nc1cc(Nc2ncnc(N3CC(C)(C)c4nc(C)c(C)cc43)n2)c(OC)cc1N(C)CCN(C)C` [Example 20, N-(2-((2-(dimethylamino)ethyl) (methyl)amino)-4-methoxy-5-((4-(3,3,5,6-tetramethyl-2,3-dihydro-1H-pyrrolo[3,2-b]pyridin-1-yl)-1,3,5-triazin-2-yl)amino)phenyl)acrylamide] are 14 nM, 2.9 nM and 15.2 nM.
With `C=CC(=O)Nc1cc(Nc2nccc(N3CC(C)(C)c4nc(C)c(C)cc43)n2)c(OC)cc1N(C)CCN(C)C` [Example 21, N-(2-((2-(dimethylamino)ethyl) (methyl)amino)-4-methoxy-5-((4-(3,3,5,6-tetramethyl-2,3-dihydro-1H-pyrrolo[3,2-b]pyridin-1-yl)pyrimidin-2-yl)amino)phenyl)acrylamide], the GI50 in experiment [1] came out at 19 nM; in experiment [2], 3.8 nM. The IC50 in experiment [3] worked out at 80.4 nM.
For `C=CC(=O)Nc1cc(Nc2ncnc(N3CC(C)(C)c4nc(Cl)ccc43)n2)c(OC)cc1N(C)CCN(C)C` [Example 22, N-(5-((4-(5-chloro-3,3-dimethyl-2,3-dihydro-1H-pyrrolo[3,2-b]pyridin-1-yl)-1,3,5-triazin-2-yl)amino)-2-((2-(dimethylamino)ethyl) (methyl)amino)-4-methoxyphenyl) acrylamide], the results for the GI50 in experiment [1] and in experiment [2] were 58.2 nM and 15.6 nM, respectively. Further, the IC50 in experiment [3] turned out to be 121 nM.
The corresponding values for `C=CC(=O)Nc1cc(Nc2nccc(N3CC(C)(C)c4nc(C)ccc43)n2)c(OCC)cc1N(C)CCN(C)C` [Example 24, N-(2-((2-(dimethylamino)ethyl) (methyl)amino)-4-ethoxy-5-((4-(3,3,5-trimethyl-2,3-dihydro-1H-pyrrolo[3,2-b]pyridin-1-yl)pyrimidin-2-yl)amino)phenyl)acrylamide] are 44.3 nM, 25.4 nM and 850 nM.
The corresponding values for `C=CC(=O)Nc1cc(Nc2cc(N3CC(C)(C)c4nc(C)c(C)cc43)ncn2)c(OC)cc1N(C)CCN(C)C` [Example 28, N-(2-((2-(dimethylamino)ethyl) (methyl)amino)-4-methoxy-5-((6-(3,3,5,6-tetramethyl-2,3-dihydro-1H-pyrrolo[3,2-b]pyridin-1-yl)pyrimidin-4-yl)amino)phenyl)acrylamide] are 37.1 nM, 28.9 nM and 26.3 nM.
In the same order, the values of `C=CC(=O)Nc1cc(Nc2ncnc(N3CC4(CCCC4)c4nc(C)ccc43)n2)c(OC)cc1N(C)CCN(C)C` [Example 29, N-(2-((2-(dimethylamino)ethyl) (methyl)amino)-4-methoxy-5-((4-(5′-methylspiro[cyclopentane-1,3′-pyrrolo[3,2-b]pyridin]-1′(2′H)-yl)-1,3,5-triazin-2-yl)amino)phenyl) acrylamide] are 45.5 nM, 20 nM and 22.1 nM.
For `C=CC(=O)Nc1cc(Nc2ncnc(N3CC(C)(C)c4nc(C)c(C)cc43)n2)c(OCC)cc1N(C)CCN(C)C` [Example 30, N-(2-((2-(dimethylamino)ethyl) (methyl)amino)-4-ethoxy-5-((4-(3,3,5,6-tetramethyl-2,3-dihydro-1H-pyrrolo[3,2-b]pyridin-1-yl)-1,3,5-triazin-2-yl)amino)phenyl)acrylamide], the figures for the GI50 in experiment [1] and in experiment [2] were 65.3 nM and 38.1 nM, respectively. This compound also displayed an IC50 in experiment [3] of 42.2 nM.
In the same order, the values of `C=CC(=O)Nc1cc(Nc2ncnc(N3CC4(CCCCC4)c4nc(C)ccc43)n2)c(OC)cc1N(C)CCN(C)C` [Example 31, N-(2-((2-(dimethylamino)ethyl) (methyl)amino)-4-methoxy-5-((4-(5′-methylspiro[cyclohexane-1,3′-pyrrolo[3,2-b]pyridin]-1′(2′H)-yl)-1,3,5-triazin-2-yl)amino)phenyl)acrylamide] are 33 nM, 13 nM and 11.1 nM.
For `C=CC(=O)Nc1cc(Nc2nccc(N3CC4(CCCCC4)c4nc(C)ccc43)n2)c(OC)cc1N(C)CCN(C)C` [Example 32, N-(2-((2-(dimethylamino)ethyl) (methyl)amino)-4-methoxy-5-((4-(5′-methylspiro[cyclohexane-1,3′-pyrrolo[3,2-b]pyridin]-1′(2′H)-yl)pyrimidin-2-yl)amino)phenyl)acrylamide], the GI50 was 95.8 nM in experiment [1] and 35.7 nM in experiment [2]. The IC50 in experiment [3] worked out at 53.7 nM.
The corresponding values for `C=CC(=O)Nc1cc(Nc2nccc(N3CC4(CCCC4)c4nc(C)ccc43)n2)c(OC)cc1N(C)CCN(C)C` [Example 33, N-(2-((2-(dimethylamino)ethyl) (methyl)amino)-4-methoxy-5-((4-(5′-methylspiro[cyclopentane-1,3′-pyrrolo[3,2-b]pyridin]-1′(2′H)-yl)pyrimidin-2-yl)amino)phenyl)acrylamide] are 84.3 nM, 35.5 nM and 264 nM.
In the same order, the values of `C=CC(=O)Nc1cc(Nc2ncnc(N3CC(C)(C)c4nc(Cl)c(C)cc43)n2)c(OC)cc1N(C)CCN(C)C` [Example 34, N-(5-((4-(5-chloro-3,3,6-trimethyl-2,3-dihydro-1H-pyrrolo[3,2-b]pyridin-1-yl)-1,3,5-triazin-2-yl)amino)-2-((2-(dimethylamino)ethyl) (methyl)amino)-4-methoxyphenyl) acrylamide] are 68.4 nM, 22.5 nM and 47.7 nM.
In the same order, the values of `C=CC(=O)Nc1cc(Nc2nccc(N3CC4(CCCC4)c4nc(C)ccc43)n2)c(OC(F)F)cc1N(C)CCN(C)C` [Example 39, N-(4-(difluoromethoxy)-2-((2-(dimethylamino)ethyl)(methyl)amino)-5-((4-(5′-methylspiro[cyclo-pentane-1,3′-pyrrolo[3,2-b]pyridin]-1′(2′H)-yl)pyrimidin-2-yl)amino)phenyl)acrylamide] are 35.8 nM, 24.9 nM and 396 nM.
As to `C=CC(=O)Nc1cc(Nc2nccc(N3CC4(CCCCC4)c4nc(C)ccc43)n2)c(OCC(F)(F)F)nc1N(C)CCN(C)C` [Example 42, N-(2-((2-(dimethylamino)ethyl) (methyl)amino)-5-((4-(5′-methyl-spiro[cyclohexane-1,3′-pyrrolo[3,2-b]pyridin]-1′(2′H)-yl)pyrimidin-2-yl)amino)-6-(2,2,2-trifluoroethoxy)pyridin-3-yl)acrylamide], the GI50 in experiment [1] stood at 23.5 nM; in experiment [2], 11.6 nM. Also, it took 488 nM to reach half-maximal inhibition in experiment [3] (IC50).
The corresponding values for `C=CC(=O)Nc1cc(Nc2ncnc(N3CC(C)(C)c4nc(C)c(C)cc43)n2)c(OC(C)C)cc1N(C)CCN(C)C` [Example 44, N-(2-((2-(dimethylamino)ethyl) (methyl)amino)-4-isopropoxy-5-((4-(3,3,5,6-tetramethyl-2,3-dihydro-1H-pyrrolo[3,2-b]pyridin-1-yl)-1,3,5-triazin-2-yl)amino)phenyl)acrylamide] are 35 nM, 20.1 nM and 108 nM.
